Assay results from US9511074B2, “Methods of treating disorders associated with protein polymerization” (UNIVERSITY OF PITTSBURGH—OF THE COMMONWEALTH SYSTEM OF …, priority 2009, dated 2016).

Legend:
[1] = tested on: ATZ in the HTO/Z cell line; experiment: Steady state levels of ATZ in the HTO/Z cell line (immunoblot of insoluble and soluble fractions); format: cell-based, human; conditions: HTO/Z cells
Text: Cell Lines The human epidermal HeLa cell line with doxycycline-regulated expression of ATZ (HTO/Z) has been described previously (1). HTO/M and HTO/Saar are HeLa cell lines with doxycycline-regulated expression of wild type AT and the AT Saar variant, respectively (1). A murine embryonic fibroblast cell line (MEF) with targeted disruption of Atg5 (2) was engineered for stable expression of ATZ using the previously described pRc/RSV-ATZ expression plasmid (3). A wild type MEF cell line was also engineered for stable expression of ATZ in the same way to serve as control. For experiments with CBZ, the inducible cell lines were cultured in the absence of doxycycline for at least 4 weeks for maximal expression of AT. The cells were then subcultured into separate monolayers in fresh complete growth medium and incubated for 48 hours in the absence or presence of CBZ or rapamycin (RAP). CBZ or RAP were added to the growth medium. The duration of incubation with CBZ was determined to be optimal at 48 hours based on experiments in which the duration was varied from 12 to 72 hours. Doses of CBZ were based on previous studies of its effects in cell lines (5,6). Doses of RAP were based on previous positive effects on autophagic disposal of polyglutamine-repeat proteins (7). After the incubation cells were homogenized and cell homogenates separated into insoluble and soluble fractions according to our previously established technique (8). Samples of 20 μgs each were subjected to immunoblot analysis for AT, BiP and GAPDH.
For immunoblot analysis to detect AT, GAPDH or LC3, cells were lysed in 50 mM Tris-HCl, 150 mM NaCl, 1% NP-40, pH 8.0. Protein levels were quantified using the BCA protein assay (Pierce Biotechnology, Rockford, Ill.). 10-50 μg samples were loaded onto 7.5% precast gels. PVDF membranes were blocked in TBS, 0.5% Tween 20 (TBST), 5% milk and then incubated with primary antibody in 5% milk TBST solution. Horseradish peroxidase anti-goat Ig or anti-mouse Ig (Jackson Labs, Bar Harbor, Me.) were used as secondary antibodies in TBST. Blots were visualized with Super Signal West Dura or West Femto from Pierce.

ATZ in the liver = experiment: Hepatic load of ATZ in vivo in PiZ×GFP-LC3 mice (immunoblot, globule histology); parameters: species or system mouse
Text: (§1) Transgenic Mice PiZ mice that have been bred into the C57/BL6 background have been described previously (1). For the second and third series of experiments with CBZ we used PiZ mice that were re-derived onto the FVB/N background for a move into a new animal facility. The transgene that was used to generate the PiZ mouse is a genomic fragment of DNA that contains the coding regions of the ATZ gene together with introns and ˜2 kilobases of upstream and downstream flanking regions (10). […] In this perspective it is not an exact phenocopy of the classical form of AT deficiency. In particular it cannot be a model for the loss-of-function mechanisms associated with the classical form of AT deficiency. It is known to have abundant expression of ATZ in hepatocytes and other cell types that express ATZ in humans (11). In the liver there are abundant ATZ-containing intrahepatocytic globules and inflammation that is characteristic of what is seen in the human liver (11,12). […] Taken together, these observations indicate that the PiZ mouse is an appropriate model for the gain-of-toxic function mechanism that is responsible for liver damage in the classical form of AT deficiency. Indeed, the fact that these mice are endowed with endogenous AT function and therein normal levels of AT in the serum and body fluids make them an even more ‘pure’ model for liver damage by gain-of-toxic function. PiZ×GFP-LC3 mice, which generated green fluorescent autophagosomes, have been described previously (2). PiZ×IKKβ.hep were generated by mating of PiZ to IKKβ.hep, which has conditional hepatocyte-specific disruption of NF.B activation (M. Karin, 17). There is increased injury in the liver of these mice as evidenced by the hepatic hydroxyproline content, 153.3% of that in the PiZ mouse (FIG. 7).
Histology Sections of liver tissue were stained with hematoxylin and eosin, PAS, PAS after diastase treatment, TUNEL, PCNA, Ki67 and Sirius Red using standard techniques (18). Previous methods for staining with antibody to smooth muscle actin were used (19). Each was examined by the pathologist (GM) who was completely blinded to the experimental protocol. […] The number of inflammatory nodules, AT-containing globules and autophagosomes were each quantified blindly by counting cells in 6 microscopic fields of 10 different sections for each liver. The number of nuclei, as determined by Hoechst staining, was used to exclude the possibility that different numbers of cells were counted in liver sections from mice treated with CBZ as compared to controls. Hepatic hydroxyproline concentration was determined by a well-established protocol (20,21). […]
For immunoblot on liver, the liver was snap frozen in liquid nitrogen and stored at −80° C. […] Total protein concentration was measured by BCA assay (Pierce). […]

PiZ mice = experiment: Hepatic fibrosis in PiZ mice (Sirius Red, hepatic hydroxyproline); format: in vivo, mouse
Text: as §1
Histology Sections of liver tissue were stained with hematoxylin and eosin, PAS, PAS after diastase treatment, TUNEL, PCNA, Ki67 and Sirius Red using standard techniques (18). Previous methods for staining with antibody to smooth muscle actin were used (19). Each was examined by the pathologist (GM) who was completely blinded to the experimental protocol. Sections of liver tissue were also stained with goat anti-human AT followed by donkey anti-goat Cy3 to detect AT-containing intracellular globules. Finally sections of liver tissue were stained with anti-GFP to optimize the detection of green fluorescent autophagosomes. The number of inflammatory nodules, AT-containing globules and autophagosomes were each quantified blindly by counting cells in 6 microscopic fields of 10 different sections for each liver. The number of nuclei, as determined by Hoechst staining, was used to exclude the possibility that different numbers of cells were counted in liver sections from mice treated with CBZ as compared to controls. Hepatic hydroxyproline concentration was determined by a well-established protocol (20,21).
Therapeutic regimens For the initial series of experiments in mice in vivo, the dose of 250 mg/kg/day for CBZ was based on previous studies of its biological effects in mice (22,23). […] CBZ was administered in DMSO by gavage once per day. Control mice were given an equivalent volume of DMSO by gavage. In a second series of experiments, doses of 200, 100 and 50 mg/kg/day of CBZ were administered for 6 weeks. The dose and route of administration of RAP, 2 mg/kg/day by intraperitoneal injection for 2 weeks, was based on previous studies that have shown activation of hepatic autophagy (24).

[2] = tested on: smooth muscle actin, collagen IA and TGFβ mRNA; experiment: Stellate cell activation markers in liver of PiZ mice by Q-PCR; format: in vivo, mouse
Description: Quantitative PCR (Q-PCR) Levels of mRNA from smooth muscle actin, collagen IA and TGFβ in liver of PiZ mice were determined by Q-PCR using primers from ABI and previous described conditions (19).

[3] = 48 hours incubation, immunoblot
[4] = PiZ×GFP-LC3 mice, 250 mg kg-1 day-1 for 2 weeks by gavage

## NC(=O)N1c2ccccc2C=Cc2ccccc21 [CBZ, 5H-dibenz [b,f]azepine-5-carboxamide]
[1]
  minimal effective dose on ATZ levels: 3 µM
[1]; [3]
  steady-state levels of ATZ, insoluble fraction: marked decrease
  steady-state levels of ATZ, soluble fraction: marked decrease
ATZ in the liver; [4]
  intrahepatocytic ATZ-containing globules: marked decrease
  total, insoluble, and soluble ATZ in the liver: marked decrease
ATZ in the liver; quantitative morphometry, 250 mg kg-1 day-1 for 2 weeks, P<0.001
  decrease in globule-containing hepatocytes, factor: 3.36
PiZ mice; 200 mg kg-1 day-1 for 6 weeks
  hepatic hydroxyproline concentrations: decreased
PiZ mice; 250 mg kg-1 for 2 weeks, FIG. 4E
  hepatic fibrosis (Sirius red): marked decrease
PiZ mice; PiZ mice vs untreated PiZ, FIG. 7
  decrease of hepatic hydroxyproline content: 46.7%
PiZ mice; PiZ mice, 6 weeks
  lowest effective dose (hepatic hydroxyproline): 200 mg/kg/day
PiZ mice; PiZ mice, mean±SD, control 2.27±1.02, P=0.0074
  hepatic hydroxyproline concentration: 1.21 ± 0.7 µg/mg dry weight
[2]; not statistically significant
  collagen 1A level: decreased
  transforming growth factor b level: decreased
[2]; reached statistical significance
  smooth muscle actin level: decreased
